The results in this text go back to ChEMBL document CHEMBL3352817, “Syntheses of coumarin-tacrine hybrids as dual-site acetylcholinesterase inhibitors and their activity against butylcholinesterase, Aβ aggregation, and β-secretase” (Bioorg Med Chem, 2014).

pIC50, pKi: −log10 of the molar value. Bounds are passed on as bounds.

Test [1] addresses Acetylcholinesterase (Homo sapiens, UniProt P22303).
Description: Inhibition of human AChE assessed as acetylthiocholine hydrolysis
The target in test [2] is Cholinesterase (Homo sapiens, UniProt P06276).
Description: Inhibition of human BChE assessed as acetylthiocholine hydrolysis
Test [3] addresses Amyloid-beta precursor protein (Homo sapiens, UniProt P05067).
Description: Inhibition of self mediated amyloid beta (1 to 42) aggregation (unknown origin) after 10 hrs by ThT-based fluorescence assay
In test [4] the target is Beta-secretase 1 (Homo sapiens, UniProt P56817).
Beta-secretase 1, sequence (P56817 whole entry): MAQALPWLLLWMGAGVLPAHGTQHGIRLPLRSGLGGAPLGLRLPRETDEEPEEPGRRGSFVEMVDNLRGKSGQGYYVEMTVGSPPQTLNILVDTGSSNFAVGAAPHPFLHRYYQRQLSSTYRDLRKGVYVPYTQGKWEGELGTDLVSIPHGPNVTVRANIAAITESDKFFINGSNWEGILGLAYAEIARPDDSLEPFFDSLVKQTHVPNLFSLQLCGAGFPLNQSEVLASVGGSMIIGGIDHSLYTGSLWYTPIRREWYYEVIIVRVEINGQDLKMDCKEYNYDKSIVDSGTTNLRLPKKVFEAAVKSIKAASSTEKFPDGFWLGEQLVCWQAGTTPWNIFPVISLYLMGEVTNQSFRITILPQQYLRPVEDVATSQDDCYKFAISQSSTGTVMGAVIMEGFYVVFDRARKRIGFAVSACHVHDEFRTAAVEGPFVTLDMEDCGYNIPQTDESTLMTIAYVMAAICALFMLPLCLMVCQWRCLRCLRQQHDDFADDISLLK

Amyloid-beta precursor protein, sequence (P05067 whole entry): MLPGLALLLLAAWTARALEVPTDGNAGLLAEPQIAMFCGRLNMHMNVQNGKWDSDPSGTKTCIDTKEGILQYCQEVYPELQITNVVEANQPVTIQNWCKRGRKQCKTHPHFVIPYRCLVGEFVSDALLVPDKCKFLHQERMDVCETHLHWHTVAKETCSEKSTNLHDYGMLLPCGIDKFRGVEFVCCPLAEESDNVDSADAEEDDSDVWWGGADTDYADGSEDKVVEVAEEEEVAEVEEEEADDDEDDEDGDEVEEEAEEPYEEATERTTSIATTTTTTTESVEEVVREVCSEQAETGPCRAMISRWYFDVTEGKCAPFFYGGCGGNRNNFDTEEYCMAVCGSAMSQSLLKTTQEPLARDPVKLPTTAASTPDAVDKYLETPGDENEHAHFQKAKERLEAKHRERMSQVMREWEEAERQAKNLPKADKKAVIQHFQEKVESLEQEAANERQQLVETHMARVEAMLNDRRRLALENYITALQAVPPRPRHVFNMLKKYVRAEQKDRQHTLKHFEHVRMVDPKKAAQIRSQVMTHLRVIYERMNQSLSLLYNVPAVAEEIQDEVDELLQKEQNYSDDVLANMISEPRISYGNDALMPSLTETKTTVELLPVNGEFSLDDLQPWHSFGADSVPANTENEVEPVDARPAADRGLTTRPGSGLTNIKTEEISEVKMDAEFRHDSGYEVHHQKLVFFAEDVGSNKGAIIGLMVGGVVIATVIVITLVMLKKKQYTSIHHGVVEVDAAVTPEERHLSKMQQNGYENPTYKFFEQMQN
Cholinesterase, sequence (P06276 whole entry): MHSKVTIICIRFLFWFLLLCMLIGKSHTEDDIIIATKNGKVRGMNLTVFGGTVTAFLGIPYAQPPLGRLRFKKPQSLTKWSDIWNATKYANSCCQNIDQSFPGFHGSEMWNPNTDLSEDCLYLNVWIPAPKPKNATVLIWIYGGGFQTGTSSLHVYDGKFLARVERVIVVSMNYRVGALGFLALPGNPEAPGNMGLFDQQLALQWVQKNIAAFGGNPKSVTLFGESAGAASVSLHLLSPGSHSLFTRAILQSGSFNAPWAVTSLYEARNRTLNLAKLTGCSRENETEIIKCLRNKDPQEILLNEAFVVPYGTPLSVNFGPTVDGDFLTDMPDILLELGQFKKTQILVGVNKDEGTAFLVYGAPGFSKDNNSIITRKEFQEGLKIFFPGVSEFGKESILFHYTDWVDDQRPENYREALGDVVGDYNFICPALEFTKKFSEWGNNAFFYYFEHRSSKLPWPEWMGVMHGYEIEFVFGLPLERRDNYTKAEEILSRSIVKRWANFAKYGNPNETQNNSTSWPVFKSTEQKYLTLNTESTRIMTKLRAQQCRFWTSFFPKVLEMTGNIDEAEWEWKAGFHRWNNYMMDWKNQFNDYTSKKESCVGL
Acetylcholinesterase, sequence (P22303 whole entry): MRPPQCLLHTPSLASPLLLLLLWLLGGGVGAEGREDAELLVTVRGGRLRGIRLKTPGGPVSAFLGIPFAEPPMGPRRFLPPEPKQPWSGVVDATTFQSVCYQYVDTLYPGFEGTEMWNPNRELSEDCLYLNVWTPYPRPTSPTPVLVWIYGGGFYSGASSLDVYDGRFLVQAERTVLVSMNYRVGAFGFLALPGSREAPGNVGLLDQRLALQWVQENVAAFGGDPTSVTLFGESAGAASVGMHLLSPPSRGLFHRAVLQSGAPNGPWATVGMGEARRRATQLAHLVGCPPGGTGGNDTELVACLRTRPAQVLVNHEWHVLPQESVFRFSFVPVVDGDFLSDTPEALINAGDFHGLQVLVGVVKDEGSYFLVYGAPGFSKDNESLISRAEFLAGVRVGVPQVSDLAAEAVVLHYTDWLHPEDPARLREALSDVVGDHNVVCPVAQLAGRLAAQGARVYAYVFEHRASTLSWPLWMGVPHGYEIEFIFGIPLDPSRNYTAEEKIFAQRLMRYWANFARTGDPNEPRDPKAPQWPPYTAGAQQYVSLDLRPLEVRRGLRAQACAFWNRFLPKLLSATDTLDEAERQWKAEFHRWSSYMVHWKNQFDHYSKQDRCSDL

On to `COc1ccc2cc(C(=O)NCCCCCNc3c4c(nc5ccccc35)CCCC4)c(=O)oc2c1`, for which the pKi is 7.35 in test [1] and 7.53 in test [2].

As to `Cc1ccc2oc(=O)c(C(=O)NCCCCCCNc3c4c(nc5ccccc35)CCCC4)cc2c1`, the pKi was 7.52 in test [1] and 7.63 in test [2]. Further, the results for the negative logarithm of the IC50 (pIC50) in test [3] and in test [4] were 5.30 and under 4.00, respectively.

`COc1cc2cc(C(=O)NCCCCCCCNc3c4c(nc5ccccc35)CCCC4)c(=O)oc2cc1OC`: the negative-log Ki (pKi) is 7.04 in test [1] and 7.43 in test [2].

Turning to `COc1ccc2oc(=O)c(C(=O)NCCCCCCNc3c4c(nc5ccccc35)CCCC4)cc2c1`, the pKi in test [1] was 7.61; in test [2] it was 7.63.

For `COc1ccc2oc(=O)c(C(=O)NCCCCCNc3c4c(nc5ccccc35)CCCC4)cc2c1`, the pKi is 7.40 in test [1] and 7.47 in test [2].

`O=C(NCCCCCNc1c2c(nc3ccccc13)CCCC2)c1cc2cc(OC(F)(F)F)ccc2oc1=O`: the negative logarithm of the Ki (pKi) in test [1] is 7.12; in test [2] it was 7.49.

On to `O=C(NCCCCCCNc1c2c(nc3ccccc13)CCCC2)c1cc2cc(OC(F)(F)F)ccc2oc1=O`, for which the pKi in test [1] is 7.22; in test [2], 7.76. Moreover, the values for the negative-log IC50 (pIC50) in test [3] and in test [4] were 4.62 and 4.65, respectively.

Regarding `COc1cc2cc(C(=O)NCCCCCNc3c4c(nc5ccccc35)CCCC4)c(=O)oc2cc1OC`, the negative logarithm of the Ki (pKi) was 7.15 in test [1] and 8.09 in test [2].

`COc1ccc2cc(C(=O)NCCCCCCNc3c4c(nc5ccccc35)CCCC4)c(=O)oc2c1`: the figures for the negative-log Ki (pKi) in test [1] and in test [2] were 7.51 and 7.69, respectively.

Take `COc1cc2cc(C(=O)NCCCCCCNc3c4c(nc5ccccc35)CCCC4)c(=O)oc2cc1OC`: the pKi in test [1] was 7.25; in test [2] it was 7.51.

Consider `COc1ccc2cc(C(=O)NCCCCCCCNc3c4c(nc5ccccc35)CCCC4)c(=O)oc2c1`, for which the negative logarithm of the Ki (pKi) is 7.26 in test [1] and 7.46 in test [2].

Consider `O=C(NCCCCCCCNc1c2c(nc3ccccc13)CCCC2)c1cc2cc(OC(F)(F)F)ccc2oc1=O`, for which the pKi was 7.11 in test [1] and 7.40 in test [2].

`O=C(NCCCCCNc1c2c(nc3ccccc13)CCCC2)c1cc2ccccc2oc1=O`: the negative-log Ki (pKi) in test [1] is 7.46; in test [2], 7.50. Moreover, the pIC50 in test [3] was under 4.00; in test [4] it was 4.40.

`Cc1ccc2oc(=O)c(C(=O)NCCCCCCCNc3c4c(nc5ccccc35)CCCC4)cc2c1`: the negative logarithm of the Ki (pKi) in test [1] was 7.18; in test [2], 7.29. Also, the pIC50 is 5.21 in test [3] and 4.37 in test [4].

For `O=C(NCCCCCCCNc1c2c(nc3ccccc13)CCCC2)c1cc2ccccc2oc1=O`, the pKi in test [1] is 7.37; in test [2], 7.70.

In the case of `COc1ccc2oc(=O)c(C(=O)NCCCCCCCNc3c4c(nc5ccccc35)CCCC4)cc2c1`, the negative logarithm of the Ki (pKi) in test [1] was 7.29; in test [2], 7.46. In addition, the pIC50 in test [3] was 4.87; in test [4] it was 4.69.

`O=C(NCCCCCCNc1c2c(nc3ccccc13)CCCC2)c1cc2ccccc2oc1=O`: the negative logarithm of the Ki (pKi) in test [1] was 7.78; in test [2], 7.79. Moreover, the negative logarithm of the IC50 (pIC50) in test [3] was under 4.00; in test [4], 4.76.

Consider `Cc1ccc2oc(=O)c(C(=O)NCCCCCNc3c4c(nc5ccccc35)CCCC4)cc2c1`, for which the pKi in test [1] was 7.45; in test [2] it was 7.49.
